Literature values, collected in patent US20240423900A1, “ANHYDROUS BARRIER AND ANTIOXIDANT COMPOSITIONS” (Baek Clinical Inc., priority 2023, published 2024).

Key:
human skin = details: general statement, no test described
[1] = general statement, no test described

SMILES: CC(C)CCCC(C)CCCC(C)CCCCC(C)CCCC(C)CCCC(C)C (centres unmarked) [Squalane, squalane]
- human skin irritant or sensitizer (human skin): not a significant human skin irritant or sensitizer
- acute toxicity [1]: low acute toxicity
